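Each compound was tested at five concentrations against cells in 96-well plates for 48 hours. GI50: concentration for 50% inhibition of growth.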 The source made the active and inactive calls. Cut-off read from the data, not from the text of the source: active = GI50 up to about 1.1 µM and inactive = higher.
What was measured:
Test in all cases: NCI-60 cell line screen, 48 h
NCI-H226 = tested on: NCI-H226
UO-31 = tested on: UO-31
HT-29 = tested on: HT-29
BT-549 = tested on: BT-549
HCT-15 = tested on: HCT-15
NCI-H23 = tested on: NCI-H23
OVCAR-4 = tested on: OVCAR-4
MCF7 = tested on: MCF7
HL-60 = tested on: HL-60
T47D = tested on: T47D
SN12C = tested on: SN12C
OVCAR-5 = tested on: OVCAR-5
MDA-N = tested on: MDA-N
CCRF-CEM = tested on: CCRF-CEM
PC-3 = tested on: PC-3
TK-10 = tested on: TK-10
MDA-MB-231 = tested on: MDA-MB-231
SK-MEL-28 = tested on: SK-MEL-28
SF-539 = tested on: SF-539
SR = tested on: SR

Row | Structure (SMILES) | GI50 (NCI-H226) | GI50 (UO-31) | GI50 (HT-29) | GI50 (BT-549) | GI50 (HCT-15) [µM] | GI50 (NCI-H23) | GI50 (OVCAR-4) | GI50 (MCF7) | GI50 (HL-60) | GI50 (T47D) | GI50 (SN12C) | GI50 (OVCAR-5) | GI50 (MDA-N) | GI50 (CCRF-CEM) | GI50 (PC-3) | GI50 (TK-10) | GI50 (MDA-MB-231) | GI50 (SK-MEL-28) | GI50 (SF-539) | GI50 (SR)
1 | CC(C)=NN/C(=N\c1ccc(Cl)cc1)NS(=O)(=O)c1ccc(C)cc1 | > 100 µM (inactive) | > 100 µM (inactive) | > 100 µM (inactive) | > 100 µM (inactive) | > 100 | > 100 µM (inactive) | 51.1 µM (inactive) | 58.5 µM (inactive) | 97.5 µM (inactive) | 23.8 µM (inactive) | 84.5 µM (inactive) | > 100 µM (inactive) | > 100 µM (inactive) | > 100 µM (inactive) | 41.2 µM (inactive) | 50.8 µM (inactive) | 73.1 µM (inactive) | 85.5 µM (inactive) | – | –
2 | COc1ccc2c3c1OC1C(OC)(OC)CC4(C=C2)CN(C)CCC314 (stereo not given) | > 100 µM (inactive) | > 100 µM (inactive) | > 100 µM (inactive) | > 100 µM (inactive) | > 100 | > 100 µM (inactive) | > 100 µM (inactive) | > 100 µM (inactive) | 20.3 µM (inactive) | > 100 µM (inactive) | > 100 µM (inactive) | > 100 µM (inactive) | > 100 µM (inactive) | 30.4 µM (inactive) | – | > 100 µM (inactive) | > 100 µM (inactive) | > 100 µM (inactive) | > 100 µM (inactive) | –
3 | CNC(=O)NS(=O)(=O)c1ccc(C)cc1.NS(=O)O | – | > 100 µM (inactive) | > 100 µM (inactive) | > 100 µM (inactive) | > 100 | > 100 µM (inactive) | > 100 µM (inactive) | > 100 µM (inactive) | > 100 µM (inactive) | > 100 µM (inactive) | > 100 µM (inactive) | > 100 µM (inactive) | > 100 µM (inactive) | > 100 µM (inactive) | > 100 µM (inactive) | > 100 µM (inactive) | > 100 µM (inactive) | > 100 µM (inactive) | > 100 µM (inactive) | –
4 | Cn1cnc(C(N)=[Se])c1N | 3.11 µM (inactive) | 2.07 µM (inactive) | 5.35 µM (inactive) | 1.13 µM (inactive) | 3.63 | 3 µM (inactive) | – | 3.15 µM (inactive) | – | 3.65 µM (inactive) | 2.29 µM (inactive) | 3.56 µM (inactive) | 4.98 µM (inactive) | 2.24 µM (inactive) | 2.24 µM (inactive) | 2.64 µM (inactive) | 2.07 µM (inactive) | 3.39 µM (inactive) | 2.02 µM (inactive) | –
5 | CC(=O)c1c(O)ccc2c1c1c(n2C)C(=O)c2ccccc2C1=O | – | – | > 100 µM (inactive) | > 100 µM (inactive) | > 100 | – | – | 1.69 µM (inactive) | > 100 µM (inactive) | 1.45 µM (inactive) | – | > 100 µM (inactive) | – | 3.69 µM (inactive) | – | 3.47 µM (inactive) | 2.52 µM (inactive) | 2.99 µM (inactive) | 3.08 µM (inactive) | 2.25 µM (inactive)
6 | Cc1ccccc1/N=N/c1c(O)ccc2ccccc12 | > 100 µM (inactive) | > 100 µM (inactive) | > 100 µM (inactive) | > 100 µM (inactive) | > 100 | > 100 µM (inactive) | 70.5 µM (inactive) | – | > 100 µM (inactive) | 59.3 µM (inactive) | > 100 µM (inactive) | > 100 µM (inactive) | > 100 µM (inactive) | > 100 µM (inactive) | > 100 µM (inactive) | > 100 µM (inactive) | > 100 µM (inactive) | > 100 µM (inactive) | – | –
7 | C[N+](C)(C)CC1CCCc2ccccc2C1=O (stereo not given) | 21.9 µM (inactive) | 16.9 µM (inactive) | – | 19.1 µM (inactive) | 5.98 | 17.9 µM (inactive) | 6.92 µM (inactive) | 2.04 µM (inactive) | 1.89 µM (inactive) | 1.73 µM (inactive) | 6.68 µM (inactive) | 13.3 µM (inactive) | – | 2.32 µM (inactive) | 16.8 µM (inactive) | 21 µM (inactive) | 16.3 µM (inactive) | 18.2 µM (inactive) | 17.4 µM (inactive) | 1.64 µM (inactive)
8 | Cn1nc2ccc(Nc3cc(=O)[nH]c4ccc5nn(C)nc5c34)cc2n1 | > 100 µM (inactive) | > 100 µM (inactive) | > 100 µM (inactive) | > 100 µM (inactive) | > 100 | > 100 µM (inactive) | > 100 µM (inactive) | > 100 µM (inactive) | – | > 100 µM (inactive) | > 100 µM (inactive) | > 100 µM (inactive) | – | > 100 µM (inactive) | > 100 µM (inactive) | > 100 µM (inactive) | > 100 µM (inactive) | > 100 µM (inactive) | > 100 µM (inactive) | 53.2 µM (inactive)
9 | Cc1nn2c(C(=O)N/N=C/c3ccccc3O)c(C)nc2s1 | 89.3 µM (inactive) | > 100 µM (inactive) | > 100 µM (inactive) | > 100 µM (inactive) | 41.9 | > 100 µM (inactive) | > 100 µM (inactive) | 30.8 µM (inactive) | 31.8 µM (inactive) | 61.5 µM (inactive) | 73.1 µM (inactive) | > 100 µM (inactive) | > 100 µM (inactive) | 41.2 µM (inactive) | – | > 100 µM (inactive) | > 100 µM (inactive) | > 100 µM (inactive) | > 100 µM (inactive) | –
10 | CN1CCN(/C(N)=C(\C#N)C(=O)Nc2ccc(Cl)cc2)CC1 | > 100 µM (inactive) | 55.1 µM (inactive) | > 100 µM (inactive) | > 100 µM (inactive) | 57.9 | 67 µM (inactive) | – | 68.4 µM (inactive) | – | > 100 µM (inactive) | > 100 µM (inactive) | > 100 µM (inactive) | 52.4 µM (inactive) | 30.1 µM (inactive) | 39.8 µM (inactive) | – | – | 46.6 µM (inactive) | > 100 µM (inactive) | 35.1 µM (inactive)
11 | Cc1ccc(N2C3=C(CC4=C2CC(C)(C)CC4=O)C(=O)CC(C)(C)C3)cc1 | > 100 µM (inactive) | > 100 µM (inactive) | > 100 µM (inactive) | > 100 µM (inactive) | > 100 | > 100 µM (inactive) | > 100 µM (inactive) | > 100 µM (inactive) | > 100 µM (inactive) | – | > 100 µM (inactive) | > 100 µM (inactive) | > 100 µM (inactive) | > 100 µM (inactive) | > 100 µM (inactive) | > 100 µM (inactive) | > 100 µM (inactive) | > 100 µM (inactive) | > 100 µM (inactive) | > 100 µM (inactive)
12 | CCN(CC)C(=S)N/N=C(/c1ccccc1)c1ccccn1 | 1.66 µM (inactive) | 0.459 µM (active) | < 0.0246 µM (active) | 0.471 µM (active) | 0.126 | 0.267 µM (active) | 0.504 µM (active) | 0.0867 µM (active) | 0.264 µM (active) | – | 0.214 µM (active) | 0.238 µM (active) | 1.07 µM (active) | 0.024 µM (active) | 0.212 µM (active) | 0.439 µM (active) | 0.0265 µM (active) | 0.767 µM (active) | 0.343 µM (active) | 0.106 µM (active)
13 | N=C(N)NCCNC(=N)N | – | > 100 µM (inactive) | > 100 µM (inactive) | > 100 µM (inactive) | > 100 | > 100 µM (inactive) | > 100 µM (inactive) | > 100 µM (inactive) | > 100 µM (inactive) | 84.3 µM (inactive) | 85.1 µM (inactive) | > 100 µM (inactive) | > 100 µM (inactive) | > 100 µM (inactive) | > 100 µM (inactive) | > 100 µM (inactive) | > 100 µM (inactive) | > 100 µM (inactive) | > 100 µM (inactive) | –
14 | O=C(N/N=C/c1ccco1)c1cc(I)cc(I)c1O | 11.4 µM (inactive) | 24 µM (inactive) | 6.41 µM (inactive) | > 50 µM (inactive) | 19.7 | 21.7 µM (inactive) | 35.8 µM (inactive) | 24.2 µM (inactive) | 10.5 µM (inactive) | 26 µM (inactive) | 9.06 µM (inactive) | 7.85 µM (inactive) | 22.9 µM (inactive) | > 50 µM (inactive) | 35.2 µM (inactive) | – | – | 28.2 µM (inactive) | 11.8 µM (inactive) | –
15 | CCN(CC)CCCNc1ccc2nc(C)n3c4ccc(O)cc4c(=O)c1c23 | 6.46 µM (inactive) | 5.89 µM (inactive) | 1.17 µM (inactive) | 12.1 µM (inactive) | 3.62 | 1.34 µM (inactive) | 4.65 µM (inactive) | 0.863 µM (active) | 1.61 µM (inactive) | 15.4 µM (inactive) | 5.15 µM (inactive) | 6.22 µM (inactive) | 7.53 µM (inactive) | 1.79 µM (inactive) | 1.47 µM (inactive) | 7.16 µM (inactive) | – | 12.7 µM (inactive) | 9.38 µM (inactive) | –
16 | O[C@H]1[C@H](O)[C@@H](O)[C@H](O)[C@@H](O)[C@H]1O [INOSITOL] | > 1000 µM (inactive) | > 1000 µM (inactive) | > 1000 µM (inactive) | > 1000 µM (inactive) | > 1000 | > 1000 µM (inactive) | > 1000 µM (inactive) | > 1000 µM (inactive) | – | > 1000 µM (inactive) | > 1000 µM (inactive) | > 1000 µM (inactive) | – | 1.7 µM (inactive) | > 1000 µM (inactive) | > 1000 µM (inactive) | > 1000 µM (inactive) | > 1000 µM (inactive) | > 1000 µM (inactive) | 56.6 µM (inactive)

Reference: ChEMBL document CHEMBL1201862, “PubChem BioAssay data set” (2004)
